Earlier results as cited in US20180110939A1, “METHOD, SYSTEM AND APPARATUS FOR CONTROLLED DELIVERY OF OPIOID AND OTHER MEDICATIONS” (Somniferum Labs LLC, priority 2016, published 2018).

Assays:
[1] = for share of the total area under the concentration-time curve of morphine and its principle metabolites: following intravenous (IV) morphine administration in humans
[2] = converted via the liver
[3] = in vivo
[4] = in vivo; remark: listed apart in the source

| Compound | share of the total area under the concentration-time curve of morphine and its principle metabolites [1] | amount generated relative to M-6-G from a given amount of morphine [2] | time from which M-6-G was present in higher concentrations than morphine ([1]; following IV administration, h.p.l.c. method) | plasma concentrations higher than morphine [3] | plasma protein binding | LD50 (lethal dose) [4] |
| --- | --- | --- | --- | --- | --- | --- |
| CN1CC[C@]23c4c5ccc(O[C@@H]6O[C@H](C(=O)O)[C@@H](O)[C@H](O)[C@H]6O)c4O[C@H]2[C@@H](O)C=C[C@H]3[C@H]1C5 [M-3-G, morphine-3-glucuronide, reference compound] | approximately 75% | 5 times |  |  |  |  |
| CN1CC[C@]23c4c5ccc(O)c4O[C@H]2[C@@H](O[C@@H]2O[C@H](C(=O)O)[C@@H](O)[C@H](O)[C@H]2O)C=C[C@H]3[C@H]1C5 [M-6-G, morphine-6-glucuronide] | 15% |  | ≥ 1 h | approximately 4 fold | low | no LD50 |
